Assay results as given in EP2712863B1, “Novel inhibitors of bacterial biofilms and related methods” (Sequoia Sciences, Inc., priority 2012, dated 2014).
In brackets after ≈: the same amount, converted by molar mass. Read-outs that look alike come from different tables or passages of the source.

Assays:
E. coli = experiment: Biofilm growth assay (spreading biofilm on semi-solid agar); assay type: cell-based; conditions: for IC85: Escherichia coli
Outline: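 Spreading (swarming) biofilm on semi-solid agar: E. coli on LB with 0.6% agar and 0.5% glucose; P. aeruginosa on M8 agar with 0.2% glucose, 100 µM CaCl2, 1 mM MgSO4, 0.5% Casamino acids. Compound in medium; 5 µL overnight culture spotted centrally, 37°C overnight. Value: concentration (µg/ml) giving ≥85% reduction in spread area versus negative control.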

P. aeruginosa = experiment: as above; assay type: cell-based; conditions: for IC85: Pseudomonas aeruginosa
[1] = Table 3, concentration that reduces the area of the spreading biofilm by >= 85%, read-out: E. coli
[2] = Table 3, concentration that reduces the area of the spreading biofilm by >= 85%, read-out: P. aeruginosa
[3] = Table 2, concentration that reduces the area of the spreading biofilm by >= 85%
[4] = Table 1, concentration that reduces the area of the spreading biofilm vs negative controls by >= 85%, > means not effective at this concentration, read-out: E. coli
[5] = Table 1, concentration that reduces the area of the spreading biofilm vs negative controls by >= 85%, > means not effective at this concentration, read-out: P. aeruginosa
[6] = Table 4, concentration that reduces the area of the spreading biofilm by >= 85%, read-out: E. coli
[7] = Table 4, concentration that reduces the area of the spreading biofilm by >= 85%, read-out: P. aeruginosa
[8] = Table 4, concentration that reduces the area of the spreading biofilm by >= 85%
[9] = Table 2, concentration that reduces the area of the spreading biofilm by >= 85%, read-out: E. coli
[10] = Table 2, concentration that reduces the area of the spreading biofilm by >= 85%, read-out: P. aeruginosa

## CC1(C)CC[C@]2(C(=O)O)CC[C@]3(C)C(=C(c4cccc(F)c4)CC4[C@@]5(C)Cc6c(n[nH]c6N)C(C)(C)[C@@H]5CC[C@]43C)[C@@H]2C1 (stereo partly drawn) [Compound 17, (4aS,6aS,6bR,8aR,13aR,15bS)-12-Amino-15-(3-fluorophenyl)-2,2,6a,6b,9,9,13a-heptamethyl-2,3,4,4a,5,6,6a,6b,7,8,8a,9,11,13,13a,13b,14,15b-octadecahydro-1H-chryseno[1,2-f]indazole-4a-carboxylic acid]
E. coli; [1]
  IC85: > 2 µg/mL
P. aeruginosa; [2]
  IC85: 0.5 µg/mL (≈ 0.851 µM)

## CC1(C)CC[C@]2(C(=O)O)CC[C@]3(C)C(=C(c4coc(CN5CCCC5)c4)CC4[C@@]5(C)Cc6c(n[nH]c6N)C(C)(C)C5CC[C@]43C)C2C1 (stereo partly drawn) [Compound 38, (4aS,6aS,6bR,13aR)-12-Amino-2,2,6a,6b,9,9,13a-heptamethyl-15-(5-(pyrrolidin-1-ylmethyl)furan-3-yl)-2,3,4,4a,5,6,6a,6b,7,8,8a,9,11,13,13a,13b,14,15b-octadecahydro-1H-chryseno[1,2-f]indazole-4a-carboxylic acid]
E. coli; [1]
  IC85: 2 µg/mL (≈ 3.11 µM)
P. aeruginosa; [2]
  IC85: 1 µg/mL (≈ 1.56 µM)

## CC1(C)CC[C@]2(C(=O)O)CC[C@]3(C)C(=CCC4[C@@]5(C)Cc6c(n[nH]c6N)C(C)(C)C5CC[C@]43C)C2C1 (stereo partly drawn) [Compound 2, (4aS,6aS,6bR,13aR)-12-Amino-2,2,6a,6b,9,9,13a-heptamethyl-2,3,4,4a,5,6,6a,6b,7,8,8a,9,11,13,13a,13b,14,15b-octadecahydro-1H-chryseno[1,2-f]indazole-4a-carboxylic acid]
E. coli; [3]
  E. coli: 1 µg/mL
P. aeruginosa; [3]
  P. aeruginosa: 0.5 µg/mL

## CC1(C)CC[C@]2(C(=O)O)CC[C@]3(C)[C@H](C(=O)C=C4[C@@]5(C)C=C(C#N)C(=O)C(C)(C)[C@@H]5CC[C@]43C)[C@@H]2C1 [L]
E. coli; [4]
  IC85: > 16 µg/mL
P. aeruginosa; [5]
  IC85: > 16 µg/mL

## CC1(C)CC[C@]2(C(=O)Nc3cc(S)n[nH]3)CC[C@]3(C)C(=CCC4[C@@]5(C)Cc6c(n[nH]c6N)C(C)(C)C5CC[C@]43C)C2C1 (stereo partly drawn) [Compound 79, (4aS,6aS,6bR,13aR)-12-Amino-N-(3-mercapto-1H-pyrazol-5-yl)-2,2,6a,6b,9,9,13a-heptamethyl-2,3,4,4a,5,6,6a,6b,7,8,8a,9,11,13,13a,13b,14,15b-octadecahydro-1H-chryseno[1,2-f]indazole-4a-carboxamide]
E. coli; [6]
  IC85: 0.5 µg/mL (≈ 0.846 µM)
P. aeruginosa; [7]
  IC85: 0.25 µg/mL (≈ 0.423 µM)

## CNc1ccc(C2=C3[C@@H]4CC(C)(C)CC[C@]4(C(=O)O)CC[C@@]3(C)[C@]3(C)CC[C@H]4C(C)(C)c5n[nH]c(N)c5C[C@]4(C)C3C2)cn1 (stereo partly drawn) [Compound 43, (4aS,6aS,6bR,8aR,13aR,15bS)-12-Amino-2,2,6a,6b,9,9,13a-heptamethyl-15-(6-(methylamino)pyridin-3-yl)-2,3,4,4a,5,6,6a,6b,7,8,8a,9,11,13,13a,13b,14,15b-octadecahydro-1H-chryseno[1,2-f]indazole-4a-carboxylic acid]
E. coli; [1]
  IC85: 1 µg/mL (≈ 1.67 µM)
P. aeruginosa; [2]
  IC85: 1 µg/mL (≈ 1.67 µM)

## CC1(C)CC[C@]2(C(=O)O)CC[C@]3(C)C(=C(c4ccccc4N)CC4[C@@]5(C)Cc6c(n[nH]c6N)C(C)(C)C5CC[C@]43C)C2C1 (stereo partly drawn) [Compound 23, (4aS,6aS,6bR,13aR)-12-Amino-15-(2-aminophenyl)-2,2,6a,6b,9,9,13a-heptamethyl-2,3,4,4a,5,6,6a,6b,7,8,8a,9,11,13,13a,13b,14,15b-octadecahydro-1H-chryseno[1,2-f]indazole-4a-carboxylic acid]
E. coli; [1]
  IC85: 2 µg/mL (≈ 3.42 µM)
P. aeruginosa; [2]
  IC85: 1 µg/mL (≈ 1.71 µM)

## CC1(C)CC[C@]2(C(=O)O)CC[C@]3(C)C(=C(c4ccc(N5CCC(N)C5)nc4)CC4[C@@]5(C)Cc6c(n[nH]c6N)C(C)(C)C5CC[C@]43C)C2C1 (stereo partly drawn) [Compound 58, (4aS,6aS,6bR,13aR)-12-Amino-15-(6-(3-aminopyrrolidin-1-yl)pyridin-3-yl)-2,2,6a,6b,9,9,13a-heptamethyl-2,3,4,4a,5,6,6a,6b,7,8,8a,9,11,13,13a,13b,14,15b-octadecahydro-1H-chryseno[1,2-f]indazole-4a-carboxylic acid]
E. coli; [1]
  IC85: 2 µg/mL (≈ 3.05 µM)
P. aeruginosa; [2]
  IC85: 1 µg/mL (≈ 1.53 µM)

## CC1(C)CC[C@]2(C(=O)Sc3nnc(N)[nH]3)CC[C@]3(C)C(=CCC4[C@@]5(C)Cc6c(n[nH]c6N)C(C)(C)C5CC[C@]43C)C2C1 (stereo partly drawn) [Compound 70, (4aS,6aS,6bR,13aR)-S-5-Amino-4H-1,2,4-triazol-3-yl 12-amino-2,2,6a,6b,9,9,13a-heptamethyl-2,3,4,4a,5,6,6a,6b,7,8,8a,9,11,13,13a,13b,14,15b-octadecahydro-1H-chryseno[1,2-f]indazole-4a-carbothioate]
E. coli; [6]
  IC85: 2 µg/mL (≈ 3.38 µM)
P. aeruginosa; [7]
  IC85: 0.5 µg/mL (≈ 0.845 µM)

## Cc1nnc(S)n1NC(=O)[C@]12CCC(C)(C)CC1C1=CCC3[C@@]4(C)Cc5c(n[nH]c5N)C(C)(C)C4CC[C@@]3(C)[C@]1(C)CC2 (stereo partly drawn) [Compound 77, (4aS,6aS,6bR,13aR)-12-Amino-N-(3-mercapto-5-methyl-4H-1,2,4-triazol-4-yl)-2,2,6a,6b,9,9,13a-heptamethyl-2,3,4,4a,5,6,6a,6b,7,8,8a,9,11,13,13a,13b,14,15b-octadecahydro-1H-chryseno[1,2-f]indazole-4a-carboxamide]
E. coli; [6]
  IC85: 2 µg/mL (≈ 3.3 µM)
P. aeruginosa; [7]
  IC85: 1 µg/mL (≈ 1.65 µM)

## CC1(C)CC[C@]2(C(=O)O)CC[C@]3(C)C(=C(c4ccoc4CN4CCNCC4)CC4[C@@]5(C)Cc6c(n[nH]c6N)C(C)(C)[C@@H]5CC[C@]43C)[C@@H]2C1 (stereo partly drawn) [Compound 35, (4aS,6aS,6bR,8aR,13aR,15bS)-12-Amino-2,2,6a,6b,9,9,13a-heptamethyl-15-(2-(piperazin-1-ylmethyl)furan-3-yl)-2,3,4,4a,5,6,6a,6b,7,8,8a,9,11,13,13a,13b,14,15b-octadecahydro-1H-chryseno[1,2-f]indazole-4a-carboxylic acid]
E. coli; [1]
  IC85: 1 µg/mL (≈ 1.52 µM)
P. aeruginosa; [2]
  IC85: > 1 µg/mL

## C[C@H]1[C@H](C)CC[C@]2(C(=O)O)CC[C@]3(C)C(=CC[C@@H]4[C@@]5(C)CC[C@H](O)C(C)(C)[C@@H]5CC[C@]43C)[C@H]12 [Ursolic acid, reference compound]
E. coli; [4]
  IC85: 8 µg/mL (≈ 17.5 µM)
P. aeruginosa; [5]
  IC85: 8 µg/mL (≈ 17.5 µM)

## CC1(C)CC[C@]2(c3nnco3)CC[C@]3(C)C(=CCC4[C@@]5(C)Cc6c(n[nH]c6N)C(C)(C)C5CC[C@]43C)C2C1 (stereo partly drawn) [Compound 67, (4aS,6aS,6bR,13aR)-2,2,6a,6b,9,9,13a-Heptamethyl-4a-(1,3,4-oxadiazol-2-yl)-2,3,4,4a,5,6,6a,6b,7,8,8a,9,11,13,13a,13b,14,15b-octadecahydro-1H-chryseno[1,2-]indazol-12-amine]
E. coli; [8]
  E. coli: 2 µg/mL
P. aeruginosa; [8]
  P. aeruginosa: 1 µg/mL

## CN(C)c1ccc(C2=C3C4CC(C)(C)CC[C@]4(C(=O)O)CC[C@@]3(C)[C@]3(C)CCC4C(C)(C)c5n[nH]c(N)c5C[C@]4(C)C3C2)cc1 (stereo in doubt) [Compound 10, (4aS,6aS,6bR,13aR)-12-Amino-15-(4-(dimethylamino)phenyl)-2,2,6a,6b,9,9,13a-heptamethyl-2,3,4,4a,5,6,6a,6b,7,8,8a,9,11,13,13a,13b,14,15b-octadecahydro-1H-chryseno[1,2-f]indazole-4a-carboxylic acid]
E. coli; [9]
  IC85: 1 µg/mL (≈ 1.63 µM)
P. aeruginosa; [10]
  IC85: 0.5 µg/mL (≈ 0.816 µM)

## CN1CCN(c2ccc(C3=C4C5CC(C)(C)CC[C@]5(C(=O)O)CC[C@@]4(C)[C@]4(C)CCC5C(C)(C)c6n[nH]c(N)c6C[C@]5(C)C4C3)cc2)CC1 (stereo partly drawn) [Compound 53, (4aS,6aS,6bR,13aR)-12-Amino-2,2,6a,6b,9,9,13a-heptamethyl-15-(4-(4-methylpiperazin-1-yl)phenyl)-2,3,4,4a,5,6,6a,6b,7,8,8a,9,11,13,13a,13b,14,15b-octadecahydro-1H-chryseno[1,2-f]indazole-4a-carboxylic acid]
E. coli; [1]
  IC85: 2 µg/mL (≈ 2.99 µM)
P. aeruginosa; [2]
  IC85: 0.5 µg/mL (≈ 0.749 µM)

## CN1CCN(c2c([C@]34CCC(C)(C)CC3C3=CCC5[C@@]6(C)Cc7c(n[nH]c7N)C(C)(C)C6CC[C@@]5(C)[C@]3(C)CC4)n[nH]c2O)CC1 (stereo partly drawn) [Compound 89, 3-((4aS,6aS,6bR,13aR)-12-Amino-2,2,6a,6b,9,9,13a-heptamethyl-2,3,4,4a,5,6,6a,6b,7,8,8a,9,11,13,13a,13b,14,15b-octadecahydro-1H-chryseno[1,2-f]indazol-4a-yl)-4-(4-methylpiperazin-1-yl)-1H-pyrazol-5-ol]
E. coli; read-out: E. coli (µg/ml)
  IC85: 1 µg/mL (≈ 1.59 µM)
P. aeruginosa; read-out: P. aeruginosa (µg/ml)
  IC85: 1 µg/mL (≈ 1.59 µM)

## CC1(C)CC[C@]2(C(=O)O)CC[C@]3(C)C(=CCC4[C@@]5(C)Cc6c[nH]nc6C(C)(C)C5CC[C@]43C)C2C1 (some centres unmarked) [D]
E. coli; [4]
  IC85: 4 µg/mL (≈ 8.36 µM)
P. aeruginosa; [5]
  IC85: 1 µg/mL (≈ 2.09 µM)

## C[C@@H]1c2n[nH]c(N)c2C[C@]2(C)C3CC=C4[C@@H]5CC(C)(C)CC[C@]5(C(=O)O)CC[C@@]4(C)[C@]3(C)CC[C@@H]12 (stereo partly drawn) [Compound 3, (4aS,6aS,6bR,8aS,9S,13aS,15bS)-12-Amino-2,2,6a,6b,9,13a-hexamethyl-2,3,4,4a,5,6,6a,6b,7,8,8a,9,11,13,13a,13b,14,15b-octadecahydro-1H-chryseno[1,2-f]indazole-4a-carboxylic acid]
E. coli; [9]
  IC85: 1 µg/mL (≈ 2.08 µM)
P. aeruginosa; [10]
  IC85: 0.5 µg/mL (≈ 1.04 µM)

## CC1(C)CC[C@]2(C(=O)O)CC[C@]3(C)C(=C(c4cn[nH]c4)CC4[C@@]5(C)Cc6c(n[nH]c6N)C(C)(C)[C@@H]5CC[C@]43C)[C@@H]2C1 (stereo partly drawn) [Compound 27, (4aS,6aS,6bR,8aR,13aR,15bS)-12-Amino-2,2,6a,6b,9,9,13a-heptamethyl-15-(1H-pyrazol-4-yl)-2,3,4,4a,5,6,6a,6b,7,8,8a,9,11,13,13a,13b,14,15b-octadecahydro-1 H-chryseno[1,2-f]indazole-4a-carboxylic acid]
E. coli; [1]
  IC85: > 2 µg/mL
P. aeruginosa; [2]
  IC85: 1 µg/mL (≈ 1.79 µM)
